Blank lines part the entries; values can stand above or below the substance they belong to.
What was measured:
[1] = SPR of immobilization of cutinase to SAM terminated in phosphonate binding partner; conditions: PBS pH 7.4; not removed by SDS 0.5 mg/mL
Description: A self-assembled monolayer (SAM) terminated in a phosphonate binding partner moiety was prepared. The ligand was present at a low density mixed with tri(ethylene glycol) groups, which resist non-specific protein adsorption. The immobilization of cutinase to the monolayer was characterized by SPR spectroscopy. Phosphate buffered saline (pH 7.4) was flowed over the monolayer for 2 min to establish a baseline, followed by a solution of protein in the same buffer for 10 min to observe binding. Finally, the protein solution was replaced with buffer for 6 min to quantitate the amount of protein that was irreversibly immobilized.

[2] = biological target: T1, β1,4-galactosyltransferase (Bos taurus, UniProt P08037); assay: Glycosyltransferase assay on immobilized carbohydrates (UDP [14C] galactose, phosphorimaging); format: biochemical, bovine; conditions: three immobilized carbohydrate substrates; UDP [^14C] galactose 3.5 μM
T1 sequence (P08037 1-402): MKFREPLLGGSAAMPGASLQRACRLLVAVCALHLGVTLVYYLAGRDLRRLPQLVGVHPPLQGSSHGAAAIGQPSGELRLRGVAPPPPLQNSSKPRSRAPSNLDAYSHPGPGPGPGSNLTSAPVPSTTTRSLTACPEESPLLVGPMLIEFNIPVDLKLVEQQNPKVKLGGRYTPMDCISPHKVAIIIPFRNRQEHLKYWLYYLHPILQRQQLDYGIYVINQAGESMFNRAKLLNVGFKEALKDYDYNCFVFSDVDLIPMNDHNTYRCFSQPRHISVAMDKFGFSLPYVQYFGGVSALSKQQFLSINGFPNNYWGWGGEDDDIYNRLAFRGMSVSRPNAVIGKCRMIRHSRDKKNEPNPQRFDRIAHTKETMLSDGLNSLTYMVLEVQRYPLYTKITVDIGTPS
Description: FIG. 12 depicts the results of a Glycosyltransferase assay. The surface comprises three different carbohydrate substrates defined by columns and a control column (no substrate). Each row was reacted with a different concentration of β1,4-galactosyltransferase and a constant concentration of sugar donor (UDP [^14C] galactose, 3.5 μM). The reaction was detected by phosphorimaging.
Referring to FIG. 12, in the glycosyltransferase assay, various carbohydrates were immobilized using a thiol chemical tag to bond to a monolayer thiolate bearing a maleimide group. A glycosyltransferase enzyme was added to the immobilized carbohydrates. The ability of the enzyme to add radioactively labeled sugars to the immobilized carbohydrates was measured. In the glycosyltransferase assay the enzyme that was employed is bovine recombinant β1,4-galactosyltransferase. Preferably, the enzyme is at a concentration of about 10 pM to about 100 uM. More preferably, the enzyme is at a concentration of about 100 pM to about 1 uM.
Detection of glycosylation of the immobilized carbohydrate substrates on the base plate was performed radiometrically. The incorporation of ^14C was quantified by exposing a storage phosphor screen to the plate and then imaging it on a Variable Mode Imager (Typhoon 8600; Molecular Dynamics, Sunnyvale, Calif.). […]

streptavidin = streptavidin (Streptomyces avidinii, UniProt P22629); assay: SPR of streptavidin binding to maleimide SAM treated with biotinylated model peptides; conditions: SAM presenting maleimide at 2%, then streptavidin
Excerpt: Michael acceptor-derivatized surfaces like that depicted in FIG. 1 are well adapted for selectively immobilizing and orienting functional organic molecules for such uses as biosensors, high throughput assays, binding assays, enzymatic assays and cell cultures. […] Surface binding was detected using biotinylated, cysteine-containing peptides and streptavidin. SAMs presenting the maleimide group at a density of 2% were applied to gold-coated coverslips according to the Examples. The SAM coated coverslips were each treated with solutions containing various reactive molecules dissolved in phosphate buffer (pH 6), and the reactivity of the surface was characterized by flowing the protein streptavidin, which selectively binds biotin, over the SAM. Streptavidin binding was quantitated by surface plasmon resonance.
Referring to FIG. 3, sensorgram (A), the SAM-coated coverslip was treated with a solution of the model biotinylated peptide biotin-NH-Arg-Asp-Cys-CONH2 (1.2 mM) for 12 minutes. 2280 RU of streptavidin binding was observed. Sensorgram (B) was obtained using a solution containing a mixture of the model peptide (0.6 mM) and lysine (16 mM). […]
SPR was performed with a Biacore 3000 instrument. Gold-coated glass microscope cover glass presenting SAMs to be analyzed were mounted in SPR cartridges. […]

[3] = SPR of biospecific-covalent attachment of cutinase-fusion protein to PNPP-terminated surfaces; format: binding
Description: A gold chip that presents 1.5% maleimide groups in a background of EG3 was exposed to a 5 mM methanolic solution of (8-mercapto-octyl)-phosphonic acid ethyl ester 4-nitro-phenyl ester—the bifunctional molecule (compound 5; HS-PNPP)—for 1 hour. During this process the thiol group of HS-PNPP reacts with the maleimide groups at the surface and results in 1.5% of a monolayer of the PNPP ligand being presented at the surface.
The chip created above was then loaded into the SPR machine that contacts a microfluidic manifold to the gold chip to allow different solutions to be delivered to the surface in up to 4 flow channels. The following fluidic protocol was then applied to the surface and the SPR signal—which measures the mass of protein that adsorbs to the surface—was measured as a function of time:
t=0 to 300 s. Flow channels 1-3 (Fc=1 to 3) were all exposed to 20 mM tris (pH 7.4) buffer t=300 to 1500 s. Fc=1 to 3 were then exposed to 3 different solutions: Fc=1: 500 ug/mL fibrinogen in 20 mM tris (pH 7.4) buffer Fc=2: 40 microM of cutinase fused to hexahistidine (cutinase-his6) in 20 mM tris buffer Fc=3: 40 microM of cutinase-his6 pre-mixed with 100 microM of PNPP t=1500 to 2250 s. Fc=1 to 3 were all exposed to 20 mM tris (pH 7.4) buffer t=2250 to 2850 s. Fc=1 to 3 were all exposed to 8 mM SDS in 20 mM tris (pH 7.4) buffer t>2850 s. Fc=1 to 3 were all exposed to 20 mM tris (pH 7.4) buffer

[4] = SPR of protein adsorption on biotin-presenting maleimide/EG3 mixed SAM surface (specific binding and NSB)
Description: FIG. 4 is a surface plasmon resonance sensorgram of a SAM presenting maleimide at a density of 2%. The SAM-coated coverslip was treated with the biotinylated, thiol-containing, model peptide biotin-NH-Arg-Asp-Cys-CONH2 (1.2 mM) for 12 minutes. Afterwards, a solution of the “sticky” protein fibrinogen (0.5 mg/mL) was flowed over the surface. Only 60 RU of adsorption was observed. Another coverslip was treated with the model peptide solution and then treated with streptavidin that had been pre-incubated with biotin.
A gold chip that presents 1.5% maleimide groups in a background of EG3 was loaded into an SPR machine (Biacore 3000). Two flow channels over this chip were simultaneously exposed to cysteine-biotin that reacts with the maleinide in order to present 1.5% biotin at the surface. Subsequently, one channel was exposed to 70 ug/mL of streptavidin and then one channel was exposed to 500 ug/mL of fibrinogen.
SPR was performed with a Biacore 3000 instrument. Gold-coated glass microscope cover glass presenting SAMs to be analyzed were mounted in SPR cartridges. All experiments used a flow rate of 10 μL/min.

Substance: Cutinase: recombinant Fusarium solani pisi cutinase expressed in E. coli
binding to phosphonate monolayer [1]: bound irreversibly to the surface

Substance: GlcNAc
substrate for the enzyme [2]: only the immobilized GlcNAc was a substrate

Substance: biotin-NH-Arg-Asp-Cys-CONH2
streptavidin binding (streptavidin; peptide 1.2 mM for 12 minutes): 2280 RU

Substance: biotin-NH-Arg-Asp-Lys-CONH2
streptavidin binding (streptavidin; peptide 4 mM for 12 minutes): no streptavidin binding

Substance: cutinase-his6: cutinase fused to hexahistidine
protein immobilized ([3]; Fc=2, 40 microM in 20 mM tris buffer): 1150 RU | protein immobilized after SDS wash ([3]; Fc=2, after 8 mM SDS wash): 1080 RU | adsorption after preincubation with PNPP ([3]; Fc=3, 40 microM pre-mixed with 100 microM PNPP): 30 RU

signal change caused by adsorption (NSB) ([4]; 1.5% maleimide in EG3 reacted with cysteine-biotin, 500 ug/mL fibrinogen): 90 RU | adsorption (non-specific) ([4]; SAM 2% maleimide treated with biotin-NH-Arg-Asp-Cys-CONH2, fibrinogen 0.5 mg/mL): 60 RU | non-specific binding to PNPP surface ([3]; Fc=1, 500 ug/mL fibrinogen): did not stick to this surface
Substance: fibrinogen

signal change caused by adsorption ([4]; 1.5% maleimide in EG3 reacted with cysteine-biotin, 70 ug/mL streptavidin): 2100 RU
Substance: streptavidin: protein which selectively binds biotin

From patent US20090325262A1, “Immobilization of biological molecules onto surfaces coated with monolayers” (SURFACE LOGIX, INC., priority 2001, published 2009)
